Experimental findings from ChEMBL document CHEMBL1201862, “PubChem BioAssay data set” (2004) are described below.

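Briefly, cells in 96-well plates were exposed to five compound concentrations for 48 h, and endpoints were estimated by linear interpolation. The concentration for 50% growth inhibition is given as GI50.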 The source made the active and inactive calls. Rule as the data show it: active = GI50 up to about 1.1 µM and inactive = higher. Bounds are passed on as bounds.

Test systems include DLD-1; M19-MEL; XF498; DMS-273; SNB-78; LXFL 529; RXF 631; HOP-18; DMS-114.
Common to all, as to test: NCI anticancer screen, dose series, 48 h

Regarding `O=C1c2ccccc2C(=O)c2sc(Nc3ccccc3Cl)nc21`, the GI50 was 4.68 µM (inactive) in the experiment with DLD-1; 1.62 µM (inactive) in the experiment on M19-MEL; 16 µM (inactive) with XF498; 13.5 µM (inactive) in the experiment on DMS-273; 13.9 µM (inactive) in the experiment on SNB-78; 2.27 µM (inactive) with LXFL 529. The values for the GI50 in the experiment with RXF 631 and in the experiment with HOP-18 were 18 µM (inactive) and 13.4 µM (inactive), respectively.
As for `CC1OC(CC(=O)O)Cc2c(O)c3c(c(O)c21)C(=O)C=C(C1=CC(=O)c2c(O)c4c(c(O)c2C1=O)CC(CC(=O)O)OC4C)C3=O` (stereo not given), the GI50 was 12.7 µM (inactive) in the experiment on DLD-1; 20.1 µM (inactive) with M19-MEL; 17.5 µM (inactive) in the experiment with XF498; 20.4 µM (inactive) with DMS-273; 25.8 µM (inactive) in the experiment on SNB-78; 8.81 µM (inactive) with LXFL 529. In addition, the GI50 is 22 µM (inactive) in the experiment on HOP-18 and 15 µM (inactive) in the experiment with DMS-114.
With `COc1ccc(C2COc3c(ccc(OC)c3OC)C2=O)cc1OC` (stereo not given), the GI50 with DLD-1 is > 100 µM (inactive); in the experiment with M19-MEL, > 100 µM (inactive); in the experiment on XF498 it was 94.8 µM (inactive); in the experiment on SNB-78, > 100 µM (inactive); with LXFL 529, > 100 µM (inactive); in the experiment on HOP-18, > 100 µM (inactive). The GI50 in the experiment with DMS-114 is 68.7 µM (inactive).
With `CN(C)CCNc1ccc(CO)c2sc3ccc(O)cc3c(=O)c12`, the GI50 in the experiment on DLD-1 was 3.52 µM (inactive); with M19-MEL it was 3.08 µM (inactive); in the experiment with XF498 it was 4.92 µM (inactive); with DMS-273 it was 0.615 µM (active); in the experiment on SNB-78, 14.4 µM (inactive); in the experiment on LXFL 529, 4.88 µM (inactive). The GI50 is 12.9 µM (inactive) in the experiment on HOP-18 and 0.681 µM (active) with DMS-114.
In the case of `O=C1C=C(Nc2ccc(Cl)cc2C(=O)c2ccccc2)c2ccccc2C1=O`, the GI50 in the experiment with DLD-1, with XF498, in the experiment with DMS-273, with SNB-78, in the experiment with LXFL 529 and in the experiment on RXF 631 was > 100 µM (inactive) in each case. Further, the GI50 with HOP-18 and in the experiment on DMS-114 was > 100 µM (inactive) throughout.
Take `O=C1C(c2ccccc2)=C(c2ccccc2)C(c2ccc(-c3ccc(C4=C(c5ccccc5)C(=O)C(c5ccccc5)=C4c4ccccc4)cc3)cc2)=C1c1ccccc1`: the GI50 in the experiment on DLD-1, in the experiment on M19-MEL, in the experiment with XF498, in the experiment on DMS-273, in the experiment on LXFL 529 and with RXF 631 was > 100 µM (inactive) throughout. Also, the GI50 in the experiment with HOP-18 and in the experiment on DMS-114 was > 100 µM (inactive) throughout.
Consider `COC(=O)N/N=C(/c1nc2ccc([N+](=O)[O-])cc2nc1O)C(O)c1ccc(OC)c(OC)c1` (stereo not given), for which the GI50 in the experiment with DLD-1 was > 100 µM (inactive); in the experiment with M19-MEL, > 100 µM (inactive); in the experiment with XF498, 59.2 µM (inactive); with DMS-273, 25 µM (inactive); with SNB-78 it was 28.4 µM (inactive); in the experiment with LXFL 529 it was 87.1 µM (inactive). The figures for the GI50 in the experiment with RXF 631, in the experiment with HOP-18 and with DMS-114 were 44.5 µM (inactive), > 100 µM (inactive) and 24.7 µM (inactive), respectively.
Take `O=c1[nH]c(=O)n(C2CC(O)C(CO)O2)cc1C#Cc1ccc(C(F)(F)F)cc1` (stereo not given): the GI50 with DLD-1, with XF498, in the experiment on DMS-273, with LXFL 529, with RXF 631 and in the experiment on HOP-18 was > 100 µM (inactive) each time. Also, the GI50 with DMS-114 was > 100 µM (inactive).
Consider `O=c1ccc2ccccc2c2ccccc12`, for which the GI50 is 3.39 µM (inactive) with DLD-1; 3.15 µM (inactive) in the experiment on M19-MEL; 3.33 µM (inactive) in the experiment on DMS-273; 4.07 µM (inactive) in the experiment on SNB-78; 2.95 µM (inactive) with LXFL 529; 3.52 µM (inactive) with HOP-18. The GI50 in the experiment on DMS-114 was 2.41 µM (inactive).
Consider `Cc1cccc(NC(=O)C(=O)Cc2nc3ccccc3nc2O)c1C`, for which the GI50 in the experiment on DLD-1, in the experiment with M19-MEL, in the experiment on XF498, in the experiment with SNB-78, with LXFL 529 and with HOP-18 was > 100 µM (inactive) throughout. The GI50 with DMS-114 is > 100 µM (inactive).
With `COc1cc(Br)c(CC2NCCc3cc(OC)c(OC)cc32)cc1OC` (stereo not given), the GI50 in the experiment with DLD-1 is > 100 µM (inactive); in the experiment with M19-MEL, 95.7 µM (inactive); in the experiment on XF498, 11.7 µM (inactive); with SNB-78, > 100 µM (inactive); in the experiment on LXFL 529, 36.7 µM (inactive).
Regarding `COC[C@@H]1[C@H]2OC(C)(C)O[C@H]2C(=O)N1C(=O)c1ccc(OC)cc1`, the GI50 in the experiment on DLD-1, in the experiment with M19-MEL, with XF498, with DMS-273, with SNB-78 and in the experiment with LXFL 529 was > 100 µM (inactive) throughout. Also, the GI50 with HOP-18 and in the experiment on DMS-114 was > 100 µM (inactive) throughout.
On to `O=c1c2ccccc2nc(-c2cccc(Cl)c2)n1NC1OC(CO)C(O)C(O)C1O` (stereo not given), for which the GI50 in the experiment on M19-MEL, in the experiment with XF498, with DMS-273, in the experiment on SNB-78, in the experiment on LXFL 529 and in the experiment with RXF 631 was > 100 µM (inactive) throughout. Further, the GI50 is 50.8 µM (inactive) in the experiment on HOP-18 and > 100 µM (inactive) with DMS-114.
Turning to `CC[C@@H](C)[C@H]([C@H](CC(=O)N1CCC[C@@H]1[C@@H](OC)[C@H](C)C(=O)N[C@H](Cc1ccccc1)c1nccs1)OC)N(C)C(=O)[C@H](NC(=O)[C@@H](C(C)C)N(C)C)C(C)C`, the GI50 in the experiment on DLD-1 was 0.000387 µM (active); in the experiment with M19-MEL, 0.000208 µM (active); in the experiment with DMS-273, 0.000159 µM (active); in the experiment on SNB-78, 0.00108 µM (active); with LXFL 529, 0.000502 µM (active); in the experiment on RXF 631 it was 0.000461 µM (active). Further, the values for the GI50 in the experiment on HOP-18 and in the experiment with DMS-114 were 0.00407 µM (active) and 0.000288 µM (active), respectively.
On to `Cc1ccc2c(c1)CN1c3ccc(C)cc3CN2C1c1ccccc1O`, for which the GI50 is 26.5 µM (inactive) in the experiment with DLD-1; 41.1 µM (inactive) in the experiment on M19-MEL; 13.5 µM (inactive) in the experiment with DMS-273; 67.1 µM (inactive) in the experiment with SNB-78; 48.8 µM (inactive) in the experiment on LXFL 529; 16.8 µM (inactive) in the experiment on DMS-114.
Take `CCOC(=O)[C@@]12C(C)=CC(=O)O[C@]1(C)C[C@H]2C#N`: the GI50 is > 100 µM (inactive) in the experiment on DLD-1; > 100 µM (inactive) in the experiment with M19-MEL; > 100 µM (inactive) in the experiment on DMS-273; > 100 µM (inactive) with SNB-78; > 100 µM (inactive) with LXFL 529; 15.4 µM (inactive) in the experiment on HOP-18. Moreover, the GI50 in the experiment with DMS-114 is > 100 µM (inactive).
On to `CN(C)CCN(C)CC1COC(C)(C)O1` (stereo not given), for which the GI50 in the experiment with DLD-1, with M19-MEL, with XF498, in the experiment on DMS-273, with SNB-78 and in the experiment with LXFL 529 was > 100 µM (inactive) each time. The GI50 in the experiment on HOP-18 is > 100 µM (inactive).
Turning to `COC(=O)/C(C)=C/[N+](=O)[O-]`, the GI50 is 1.93 µM (inactive) with DLD-1; 17.4 µM (inactive) in the experiment on M19-MEL; 14.3 µM (inactive) in the experiment with XF498; 17.8 µM (inactive) with DMS-273; 21.1 µM (inactive) with SNB-78; 14 µM (inactive) in the experiment with LXFL 529. In addition, the figures for the GI50 in the experiment with HOP-18 and with DMS-114 were 18 µM (inactive) and 18.2 µM (inactive), respectively.
With `CC1CN1C(=O)NCCCCCCNC(=O)N1CC1C` (stereo not given), the GI50 with DLD-1 is > 100 µM (inactive); in the experiment with M19-MEL, > 100 µM (inactive); with XF498, > 100 µM (inactive); with DMS-273 it was 25.6 µM (inactive); with LXFL 529, > 100 µM (inactive); in the experiment on HOP-18 it was > 100 µM (inactive). Besides, in the experiment with DMS-114, the GI50 is > 36.2 µM (inactive).
Turning to `CN1CCOC(c2ccccc2)O1` (stereo not given), the GI50 in the experiment with DLD-1, in the experiment with M19-MEL, with DMS-273, in the experiment with SNB-78, in the experiment on LXFL 529 and in the experiment on RXF 631 was > 100 µM (inactive) throughout. Moreover, the GI50 in the experiment with HOP-18 and in the experiment on DMS-114 was > 100 µM (inactive) throughout.
Regarding `COc1ccc(C2CC(C)=Nc3c(O)nc(S)nc3N2)cc1` (stereo not given), the GI50 in the experiment with M19-MEL was 16.9 µM (inactive); with XF498, 24.8 µM (inactive); in the experiment with DMS-273, 16.7 µM (inactive); with SNB-78 it was 46.7 µM (inactive); in the experiment with LXFL 529, 16.6 µM (inactive); with RXF 631 it was 25.6 µM (inactive). For the same compound, the figures for the GI50 in the experiment with HOP-18 and with DMS-114 were 62.7 µM (inactive) and 21 µM (inactive), respectively.
As for `C[C@]12CCC(=O)C=C1CC[C@@H]1C2CC[C@]2(C)Nc3[nH]ncc3CC12` (stereo not given in full), the GI50 in the experiment on DLD-1, in the experiment with M19-MEL, in the experiment with XF498, in the experiment on DMS-273, in the experiment on SNB-78 and in the experiment with LXFL 529 was > 100 µM (inactive) throughout. In addition, the GI50 with DMS-114 was > 100 µM (inactive).
In the case of `O=C(CCC(=O)Nc1cccc(Cl)c1)CC(=O)c1ccc(Cl)cc1`, the GI50 in the experiment with DLD-1 was > 10 µM (inactive); with XF498, > 100 µM (inactive); with DMS-273, > 100 µM (inactive); in the experiment with SNB-78, > 100 µM (inactive); with LXFL 529, > 100 µM (inactive); with RXF 631 it was > 100 µM (inactive).
